We go through eleven compounds from ChEMBL document CHEMBL1201862, “PubChem BioAssay data set” (2004).

Holding throughout (experiment): growth of human tumour cells (NCI), 48 h
In assay [1] the test system is SF-268.
For assay [2], the system named is LOX IMVI.
The test system of assay [3] is HT-29.
The test system of assay [4] is NCI-H226.
The subject of assay [5] is UACC-62.
Assay [6] concerns M14.
Assay [7] relates to KM12.
Assay [8] concerns K562.
For assay [9], the system named is SF-539.
Assay [10] relates to ACHN.
The test system of assay [11] is SR.
In assay [12] the test system is SK-OV-3.
The subject of assay [13] is CAKI-1.
Assay [14] has as its system PC-3.
Assay [15] has as its system BT-549.
Assay [16] relates to A549.
Assay [17] deals with IGROV-1.
In assay [18] the test system is MDA-MB-231.
Assay [19] concerns HOP-92.
Assay [20] relates to A498.

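Cultured in 96-well plates, cells were exposed to test compound for 48 hours across five concentrations. The concentration for 50% growth inhibition is given as GI50.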 Calls of active or inactive are those of the source. Rule as the data show it: active = GI50 up to about 1.1 µM and inactive = higher.

For `CN1CC(c2ccccc2)=CC2=C1C=CC(=N)/C2=N\N`, the GI50 is > 100 µM (inactive) in assay [1]; > 100 µM (inactive) in assay [2]; > 100 µM (inactive) in assay [3]; 6.65 µM (inactive) in [4]; > 100 µM (inactive) in [5]; > 100 µM (inactive) in assay [6]. Further, the GI50 in [7], in [8], in [9], in assay [10], in [11] and in assay [12] was > 100 µM (inactive) each time. In addition, the GI50 in [13] was 5.46 µM (inactive); in assay [14], > 100 µM (inactive); in assay [15], 52.2 µM (inactive); in assay [16], > 100 µM (inactive); in assay [17], > 100 µM (inactive); in assay [18] it was > 100 µM (inactive).
For the compound `O=C(O)CCCOc1cc(-c2ccccc2F)nc2cc3c(cc12)OCO3`, the GI50 was 4.51 µM (inactive) in [2]; 4.54 µM (inactive) in assay [3]; 13 µM (inactive) in [19]; 6.17 µM (inactive) in assay [5]; 3.73 µM (inactive) in assay [6]; 4.19 µM (inactive) in assay [7]. For the same compound, the GI50 in assay [9] was 3.4 µM (inactive); in [11] it was 3.93 µM (inactive); in assay [12] it was 6.11 µM (inactive); in [13], 9.64 µM (inactive); in assay [14] it was 3 µM (inactive); in assay [15] it was 29.8 µM (inactive). The GI50 was 5.77 µM (inactive) in [16], 2.58 µM (inactive) in assay [17] and 31.3 µM (inactive) in assay [18].
In the case of `O=c1[nH]cnc2cccc(Cl)c12`, the GI50 in assay [1], in assay [3], in [4], in [5], in [6] and in assay [7] was > 100 µM (inactive) throughout. Besides, the GI50 in assay [8], in assay [9], in assay [20], in [10], in assay [11] and in assay [12] was > 100 µM (inactive) in each case. In addition, the GI50 in assay [13], in assay [14], in assay [15], in assay [16], in assay [17] and in assay [18] was > 100 µM (inactive) in each case.
Turning to `CCOc1nc2c(N3CCCC3)nc(N3CCNCC3)nc2nc1NCc1ccccc1`, the GI50 in assay [1] was 1.56 µM (inactive); in assay [2], 1.36 µM (inactive); in assay [3], 0.83 µM (active); in [19], 1.13 µM (inactive); in assay [4] it was 1.65 µM (inactive); in [5] it was 1.83 µM (inactive). The GI50 in assay [6] was 1.61 µM (inactive); in assay [7], 1.34 µM (inactive); in assay [8] it was 1.2 µM (inactive); in [9], 1.52 µM (inactive); in assay [10] it was 1.58 µM (inactive); in assay [11], 1.31 µM (inactive). For the same compound, the GI50 in assay [12] was 1.57 µM (inactive); in assay [13], 1.85 µM (inactive); in assay [14], 1.46 µM (inactive); in [15], 1.61 µM (inactive); in [16], 1.74 µM (inactive); in [17] it was 1.19 µM (inactive). In addition, the GI50 in [18] was 1.45 µM (inactive).
As to `CN(/N=C/c1cccs1)c1ccc(Cl)cc1[N+](=O)[O-]`, the GI50 was 83.4 µM (inactive) in [1]; 25.9 µM (inactive) in assay [3]; 19.8 µM (inactive) in assay [4]; 47 µM (inactive) in [5]; 34.2 µM (inactive) in assay [6]; 11.4 µM (inactive) in [7]. In addition, the GI50 in assay [8] was 5.78 µM (inactive); in [9], 25 µM (inactive); in assay [10] it was 40 µM (inactive); in assay [11], 5.71 µM (inactive); in [12] it was 40.8 µM (inactive); in assay [13], 63.1 µM (inactive). The GI50 is 38.4 µM (inactive) in assay [14]; 40.6 µM (inactive) in assay [15]; 30.3 µM (inactive) in assay [16]; > 100 µM (inactive) in assay [17]; 14.2 µM (inactive) in assay [18].
As to `N=c1nc(N)nc(N)n1-c1ccc(S(N)(=O)=O)cc1`, the GI50 in [1], in assay [2], in assay [3], in assay [19], in [4] and in assay [5] was > 100 µM (inactive) throughout. Moreover, the GI50 in assay [6], in assay [7], in assay [8], in [20], in assay [10] and in assay [11] was > 100 µM (inactive) throughout. The GI50 in [13], in assay [14], in [15], in [16], in assay [17] and in [18] was > 100 µM (inactive) each time.
Consider `O=C1CCCCCCCCCCC1CN(Cc1ccccc1)Cc1ccccc1` (stereo unspecified), for which the GI50 in assay [1] was 40 µM (inactive); in [2] it was 22.9 µM (inactive); in [19], 78.2 µM (inactive); in [4] it was 51.3 µM (inactive); in assay [5], 13.7 µM (inactive); in assay [6] it was 48 µM (inactive). Further, the GI50 in assay [7] is 83.9 µM (inactive); in [8], 36.3 µM (inactive); in [9] it was 45.2 µM (inactive); in assay [10], 30 µM (inactive); in assay [11], 35.5 µM (inactive); in assay [12], 54 µM (inactive). The GI50 in [14] is 30.9 µM (inactive); in assay [15] it was 50.7 µM (inactive); in assay [16], 40.7 µM (inactive); in assay [17], > 100 µM (inactive); in assay [18], 77.6 µM (inactive).
For `O=c1onc2n1-c1ccc(Cl)cc1C(=S)N1CSCC21` (stereo unspecified), the GI50 in assay [1] is 25.8 µM (inactive); in assay [2] it was 31.5 µM (inactive); in [3], 24.5 µM (inactive); in [4] it was 28.1 µM (inactive); in [5], 67.8 µM (inactive); in assay [6] it was 11.1 µM (inactive). Besides, the GI50 is 29.4 µM (inactive) in assay [7]; 25.4 µM (inactive) in assay [8]; 23.1 µM (inactive) in [20]; 66.8 µM (inactive) in [10]; 15.9 µM (inactive) in [11]; 19.4 µM (inactive) in assay [12]. The GI50 in assay [13] was 64.1 µM (inactive); in assay [14] it was 31.4 µM (inactive); in assay [15], 20.5 µM (inactive); in assay [16], 34.8 µM (inactive); in assay [17] it was 26.5 µM (inactive); in assay [18] it was 19.5 µM (inactive).
Regarding `O=[N+]([O-])C(=C(Nc1ccccc1)Nc1ccccc1)/C(Cl)=C(\Cl)[N+](=O)[O-]`, the GI50 in [1] is 2.98 µM (inactive); in assay [2] it was 2.92 µM (inactive); in assay [3], 3.27 µM (inactive); in [4], 12.7 µM (inactive); in [5], 4.58 µM (inactive); in [6], 4.75 µM (inactive). Besides, the GI50 in assay [7] was 3.98 µM (inactive); in assay [8], 3.41 µM (inactive); in [9], 1.84 µM (inactive); in assay [20] it was 19.7 µM (inactive); in [10], 2.61 µM (inactive); in assay [11], 1.11 µM (active). Moreover, the GI50 in assay [12] is 20.3 µM (inactive); in assay [13], 1.61 µM (inactive); in assay [14], 5.65 µM (inactive); in [15] it was 3.71 µM (inactive); in assay [16], 10.8 µM (inactive); in assay [18], 3.88 µM (inactive).
`CC1(CCCC2(C)CCNC2=O)OCCO1` (stereo unspecified): the GI50 in assay [1], in [2], in assay [3], in assay [4], in assay [5] and in assay [6] was > 10 µM (inactive) throughout. Also, the GI50 in assay [7], in [8], in assay [9], in assay [20], in assay [10] and in assay [11] was > 10 µM (inactive) each time. For the same compound, the GI50 in [12], in [13], in [14], in [15], in assay [16] and in assay [17] was > 10 µM (inactive) each time. Also, in assay [18], the GI50 is > 10 µM (inactive).
On to `COCn1cnc2c(=O)n(-c3ccc(OC)cc3)c(=S)n(-c3ccc(OC)cc3)c21`, for which the GI50 in assay [1], in assay [2], in assay [3], in assay [4], in assay [5] and in assay [6] was > 100 µM (inactive) throughout. Also, the GI50 in assay [7], in [8], in [9], in assay [20], in assay [10] and in assay [11] was > 100 µM (inactive) each time. The GI50 in assay [12], in assay [13], in assay [14], in [15], in assay [16] and in assay [17] was > 100 µM (inactive) in each case. Also, the GI50 in assay [18] was > 100 µM (inactive).
